The term amount remaining denotes what is left of the initial amount, in per cent.

Each structure is given as a SMILES string. Read-outs that look alike come from different tables or passages of the source. Where a SMILES comes first, the peptide text is derived from it. [ ]: non-standard residue; d: D form. βAla = NCCC(=O)O

Type in all cases: in vitro ADME, human
Data set [1] can be described thus: Soluble peptide degradation, Cells condition (LC-MS). The settings on record: human. The gist of the method: (§1)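 Pooled synthetic TAILS-derived peptides added to hUVEC or hMSC cultures (Cells) or cell-free conditioned media (Media); MMP-14 inhibitor NSC 405 020 at 10 µM final. Samples taken at 0 and 24 h, acidified, analysed by LC-MS; peak areas normalised to 50 µM βFβA6 internal standard, 24 h/0 h gives fraction remaining.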

For the next data set, the system named is MMP-14. Described as above. The settings on record: human. The gist of the method:
as §1

The subject of a further data set is hMSCs. The data set is described as above. Particulars: Figure 3C; individually synthesized soluble peptide, 50 µM, media on hMSCs; 24 h; LC-MS, ratio to βFβA6; N = 6. A digest of the protocol: as §1
The test system of the next data set is hUVECs. Described as above. The settings on record: Figure 3B heatmap; split-and-pool libraries KLVADX1X2ASAE in media on hUVECs; 24 h; LC-MS, ratio to βFβA6; N = 2. The gist of the method: as §1
Data set [2] in a line: Soluble peptide degradation, Media condition (cell-conditioned media, LC-MS). Particulars: for remaining at 24 h: hMSC-conditioned media without cells (Media condition), Figure 3B heatmap, split-and-pool libraries KLVADX1X2ASAE in hMSC-conditioned media without cells, N = 2, read-out: Fraction of peptide remaining after 24 hours: hMSC Media. A digest of the protocol:
(§2)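 Pooled peptide library added to medium conditioned by hUVECs or hMSCs with cells removed. Fraction remaining after 24 h measured by LC-MS (positive-ion ESI). Value is peptide peak area relative to 50 µM non-degradable βFβA6 internal standard.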

Assay in data set [3]: as above
The settings on record: 24 h, LC-MS, ratio to βFβA6. The gist of the method: as §2

Where [4] appears, read: hMSCs in culture with fresh media (Cells condition), Figure 3B heatmap, split-and-pool libraries KLVADX1X2ASAE (19 or 38 peptides per library) in media on hMSCs, 24 h, LC-MS, ratio to βFβA6, N = 2, read-out: Fraction of peptide remaining after 24 hours: hMSC Cells.
Where [5] appears, read: human, 24 h, LC-MS, ratio to βFβA6.

As to `CC(=O)NCCC(=O)N[C@@H](CCCCN)C(=O)N[C@@H](CC(C)C)C(=O)N[C@H](C(=O)N[C@@H](C)C(=O)N[C@@H](CC(=O)O)C(=O)N[C@@H](Cc1ccc(O)cc1)C(=O)N[C@@H](Cc1c[nH]c2ccccc12)C(=O)N[C@@H](C)C(=O)N[C@@H](CO)C(=O)N[C@@H](C)C(=O)N[C@@H](CCC(=O)O)C(=O)NCCC(N)=O)C(C)C` [KLVAD-YW] (Ac-[βAla]KLVADYWASAE[βAla]-NH2), the amount remaining at 24 h in data set [1] (setting [4]) came to 53%; in data set [2] (setting [5]) it was 78%. Also, the amount remaining at 24 h, 50 µM in data set [1] (hUVECs in culture with fresh media (Cells condition), Figure 3C, individually synthesized soluble peptide, 50 µM, media on hUVECs, 24 h, LC-MS, ratio to βFβA6, N = 6, read-out: Fraction of peptide remaining after 24 hours: hUVEC Cells) came out at 72%; in the data set on MMP-14 (with NSC 405 020 (MMP-14 inhibitor), Figure 3C, 50 µM peptide, media on hMSCs with MMP-14 inhibitor NSC 405 020 10 µM, 24 h, LC-MS, N = 6, read-out: Fraction of peptide remaining after 24 hours: hMSC +Inhibitor) it was 76%; with MMP-14 (with NSC 405 020 (MMP-14 inhibitor), Figure 3C, 50 µM peptide, media on hUVECs with MMP-14 inhibitor NSC 405 020 10 µM, 24 h, LC-MS, N = 6, read-out: Fraction of peptide remaining after 24 hours: hUVEC +Inhibitor), 98%. Also, in the data set with hMSCs, the “Fraction of peptide remaining after 24 hours: hMSC Cells” value stood at 0.4. Moreover, the “Fraction of peptide remaining after 24 hours: hUVEC Cells” value with hUVECs is on record as 0.86. In data set [2] (Figure 3C, individually synthesized soluble peptide, 50 µM, hMSC-conditioned media without cells, 24 h, LC-MS, ratio to βFβA6, N = 6), the “Fraction of peptide remaining after 24 hours: hMSC Media” value came out at 0.91. The “Fraction of peptide remaining after 24 hours: hUVEC Media” value in data set [3] (Figure 3B heatmap, split-and-pool libraries KLVADX1X2ASAE in hUVEC-conditioned media without cells, N = 2) came to 0.96; in data set [3] (Figure 3C, individually synthesized soluble peptide, 50 µM, hUVEC-conditioned media without cells, N = 6), 0.92.

For `CC(=O)NCCC(=O)N[C@@H](CCCCN)C(=O)N[C@@H](CC(C)C)C(=O)N[C@H](C(=O)N[C@@H](C)C(=O)N[C@@H](CC(=O)O)C(=O)N[C@@H](CCC(=O)O)C(=O)N1CCC[C@H]1C(=O)N[C@@H](C)C(=O)N[C@@H](CO)C(=O)N[C@@H](C)C(=O)N[C@@H](CCC(=O)O)C(=O)NCCC(N)=O)C(C)C` [Glu-Pro] (Ac-[βAla]KLVADEPASAE[βAla]-NH2), the amount remaining at 24 h in data set [1] (setting [4]) was found to be 49%; in data set [2] (setting [5]), 79%; in data set [3] (human, hUVEC-conditioned media without cells (Media condition), Figure 3B heatmap, split-and-pool libraries KLVADX1X2ASAE in hUVEC-conditioned media without cells, N = 2, read-out: Fraction of peptide remaining after 24 hours: hUVEC Media), 96%. The “Fraction of peptide remaining after 24 hours: hUVEC Cells” value with hUVECs came out at 0.89.

For the molecule `CC(=O)NCCC(=O)N[C@@H](CCCCN)C(=O)N[C@@H](CC(C)C)C(=O)N[C@H](C(=O)N[C@@H](C)C(=O)N[C@@H](CC(=O)O)C(=O)N1CCC[C@H]1C(=O)N[C@@H](CC(C)C)C(=O)N[C@@H](C)C(=O)N[C@@H](CO)C(=O)N[C@@H](C)C(=O)N[C@@H](CCC(=O)O)C(=O)NCCC(N)=O)C(C)C` [KLVAD-PL] (Ac-[βAla]KLVADPLASAE[βAla]-NH2), the fraction remaining at 24 h was determined as 83% in data set [1] (cells or culture medium) and 51% in data set [1] (cells or culture medium, Fraction of peptide remaining after 24 hours: hMSC Cells). The fraction remaining at 24 h, 50 µM with MMP-14 (cells or culture medium) came out at 99%; with MMP-14 (cells or culture medium, Fraction of peptide remaining after 24 hours: hMSC +Inhibitor), 94%; in data set [2] (human, cells or culture medium), 91%.

These data come from article PMC12683216, “Using High‐Throughput Screening to Identify Crosslinking Peptides That Control Cell‐Mediated Matrix Degradation” (Advanced Healthcare Materials, 2025).
